Source: US20240173333A1, “Treating Alagille Syndrome (ALGS)” (priority 2022, published 2024)

Legend:
[1] = tested on: patients with Alagille syndrome (ALGS); experiment: ASSERT pruritus responders: serum bile acids
From the text: Treatment with concomitant medications for pruritus was permitted provided the patient was on a stable dosage for ≥4 weeks prior to enrollment that was maintained throughout the study.
Pruritus responders were defined as patients having a ≥1-point decrease in ObsRO scratching score from baseline to weeks 21-24).

[2] = tested on: patients with Alagille syndrome (ALGS); experiment: ASSERT-EXT open-label extension: safety, TEAEs; type: in vivo, human
Procedure: ASSERT-EXT is a Phase 3, multi-center, open-label extension study designed to evaluate the long-term safety and efficacy of 120 μg/kg/day odevixibat in relieving pruritus in patients with ALGS. Patients who participated in the ASSERT trial (see Example 1) and met eligibility criteria for the ASSERT trial were eligible to participate. The duration of the treatment period is 72 weeks, followed by a 4-week Safety Follow-up Period. Clinic visits occur every 4 to 12 weeks. Patients who wish to continue receiving odevixibat after 72 weeks will have the opportunity to remain on treatment in an optional extension period with visits every 16 weeks until the drug is commercially available, provided continued use is supported by the risk-benefit profile, the patient has not been previously withdrawn or discontinued from the study, and the study is not terminated by the Sponsor. The 4-week Safety Follow-up Period will not occur for those who remain on treatment in the optional extension period.
Day 1 coincided with Week 24 in the ASSERT trial; however, if this was not possible due to logistic issues, patients enrolled in the ASSERT-EXT trial within 28 days of completion of the ASSERT trial. All patients in the ASSERT-EXT trial receive odevixibat 120 μg/kg/day. Two groups were analyzed up to an interim cut-off date of Sep. 9, 2022: treatment-naïve patients who received placebo in ASSERT (i.e., “placebo-odevixibat”) and patients who received odevixibat in ASSERT (i.e., “odevixibat-odevixibat”).
Safety Analysis. The primary safety analysis for this study included the incidence of total treatment emergent AEs (TEAEs) and TEAEs categorized by causality, severity, and seriousness assessments made by the investigator. Trends in safety were also evaluated for the following assessments: Physical examinations; Concomitant medications; Vital signs; Laboratory test results (including clinical chemistry, hematology, urinalysis, AFP, vitamins A, E, and 25-hydroxy vitamin D, and INR); Liver ultrasound and elastography (where available); and Discontinuations due to Aes.

[3] = tested on: patients with Alagille syndrome (ALGS); experiment: ASSERT phase 3 trial: ObsRO scratching score and pruritus response; type: in vivo, human; details: 120 μg/kg/day
Procedure: Odevixibat is an orally administered, potent, luminally restricted, selective IBAT inhibitor in development to treat cholestatic liver diseases. In this phase 3, double-blind, randomized, 24-week trial (ASSERT), the efficacy and safety of odevixibat versus placebo was evaluated in patients with Alagille Syndrome (ALGS). The efficacy of odevixibat in patients with ALGS was evaluated in a 24-week, randomized, double-blind, placebo-controlled trial conducted in 52 patients with a confirmed diagnosis of ALGS (NCT04674761; ASSERT). Patients were randomized 2:1 to receive odevixibat 120 μg/kg/day or placebo.
The study consisted of a screening phase and parallel-design treatment period. Two screening visits occurred: the first took place during days −56 to −21 prior to the first dose of study drug and the second occurred during days −49 to ˜14. On day 0, all eligible patients were randomized 2:1 to oral, 120 μg/kg/day odevixibat or once-daily placebo. Eligibility for randomization was determined using pruritus or scratching reports from observer reported outcome (ObsRO)/patient reported outcome (PRO) data for evaluation of itching (PRO), scratching (ObsRO), and sleep disturbance (PRO and ObsRO) in the 14 days before Study Day 1, clinical genetic confirmation of diagnosis, and the liver biochemistry evaluations from the previous screening visits. After written informed consent was obtained, an Interactive Web Response System (IWRS) was used to assign patients to treatment. The randomization codes were computer generated by Albireo or a qualified randomization vendor.
A single primary endpoint was evaluated. The primary endpoint in this study was the change from baseline in scratching to Month 6 (Weeks 21 to 24) as measured by the observer-reported outcome (ObsRO) instrument.
Itching, Scratching, and Sleep Parameters. Itching, observed scratching, and sleep disturbance were recorded twice each day via eDiary. Patients and/or caregivers were instructed to complete the eDiary every day in the morning after the patient woke and in the evening just before the patient went to sleep throughout the study. The eDiary included ObsRO and PRO items. The PRO items assessed severity of itch, aspects of sleep disturbance (morning diary only), and tiredness. The ObsRO items assessed severity of observed scratching, aspects of observed sleep disturbance (morning diary only), and signs of tiredness (evening diary only). […]
Statistical Analyses. […] After a minimum of 18 patients had completed the Week 16 visit, the pooled SD of change from baseline to Month 4 (Weeks 13-16 assessments) and available change from baseline to Month 6 (Weeks 21-24 assessments) in average monthly scratching score was calculated by an independent statistician to assess the need for sample size re-estimation. […]

CCCCC1(CCCC)CN(c2ccccc2)c2cc(SC)c(OCC(=O)N[C@@H](C(=O)N[C@@H](CC)C(=O)O)c3ccc(O)cc3)cc2S(=O)(=O)N1 [odevixibat, 1,1-dioxo-3,3-dibutyl-5-phenyl-7-methylthio-8-(N-{(R)-α-[N-((S)-1-carboxypropyl)carbamoyl]-4-hydroxybenzyl}carbamoylmethoxy)-2,3,4,5-tetrahydro-1,2,5-benzothiadiazepine]
Bile acids, Week 24 Mean (SE) ([1]; average of weeks 20 and 24, n=28): 136 (19) μmol/L
Bile acids, Mean (SE) Change From Baseline ([1]; baseline to average of weeks 20 and 24): −107 (23) μmol/L
Bile acids, Baseline Mean (SE) ([1]; n=28): 243 µmol/L
Bile acids, Baseline Mean (SE) ([1]; n=28, listed as Odevixibat): 243 (23) μmol/L
Serious TEAEs ([2]; 2/49 patients, interim cut-off): 4%
drug-related serious TEAEs or TEAEs leading to discontinuation or dose reduction ([2]; interim cut-off): No drug-related serious TEAEs or TEAEs leading to discontinuation or dose reduction
incidence of drug-related diarrhea ([2]; n=49, interim cut-off): 4%
incidence of treatment-emergent diarrhea ([2]; n=49, interim cut-off): 16%
tolerability ([2]; treatment for ≥24 weeks): well tolerated
LS mean change from baseline in scratching score (ObsRO) ([3]; baseline to Weeks 21-24, 34 patients): −1.69 points
improvement in pruritus (mean monthly ObsRO scratching score) observed as early as ([3]; onset of effect): 1 week
percentage of patients who were pruritus responders (≥1-point reduction in monthly scratching score from baseline) ([3]; week 12): 74%
percentage of patients who were pruritus responders (≥1-point reduction in monthly scratching score from baseline) ([3]; week 24 (weeks 21-24), n=35): 80%
